Assays:
Experiment in all cases: relative viability (nuclei count vs DMSO), 5 days (fraction); higher = more cells survive
NCI-H2347 = tested on: NCI-H2347
Summary of the method: (§1)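 Five library-drug doses in √10 steps were combined with a fixed anchor-drug dose, or a single drug was given alone, by pin tool to lung cancer cell lines in 1536-well plates the day after seeding. Nuclei were stained and counted after 5 days. Relative viability is the nuclei count in treated wells over that in vehicle wells, taken as the median of duplicate plates.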

EPLC-272H = tested on: EPLC-272H
Summary of the method: as §1

H3255 = tested on: H3255
Summary of the method: as §1

NCI-H650 = tested on: NCI-H650
Summary of the method: as §1

201T = tested on: 201T
Summary of the method: as §1

COR-L 105 = tested on: COR-L 105
Summary of the method: as §1

NCI-H2087 = tested on: NCI-H2087
Summary of the method: as §1

NCI-H2126 = tested on: NCI-H2126
Summary of the method: as §1

NCI-H2405 = tested on: NCI-H2405
Summary of the method: as §1

HCC-78 = tested on: HCC-78
Summary of the method: as §1

LC-2-ad = tested on: LC-2-ad
Summary of the method: as §1

NCI-H1666 = tested on: NCI-H1666
Summary of the method: as §1

LCLC-97TM1 = tested on: LCLC-97TM1
Summary of the method: as §1

NCI-H23 = tested on: NCI-H23
Summary of the method: as §1

NCI-H322M = tested on: NCI-H322M
Summary of the method: as §1

HCC-827 = tested on: HCC-827
Summary of the method: as §1

NCI-H1915 = tested on: NCI-H1915
Summary of the method: as §1

NCI-H520 = tested on: NCI-H520
Summary of the method: as §1

NCI-H661 = tested on: NCI-H661
Summary of the method: as §1

PC-14 = tested on: PC-14
Summary of the method: as §1

RERF-LC-KJ = tested on: RERF-LC-KJ
Summary of the method: as §1

NCI-H647 = tested on: NCI-H647
Summary of the method: as §1

C[C@@H]1CN(CC(=O)Nc2ccc3c(c2)Cc2cccc(-c4cc(=O)cc(N5CCOCC5)o4)c2S3)C[C@H](C)O1 + C[C@]1(O)C[C@@H](c2nc(-c3ccc4ccc(-c5ccccc5)nc4c3)c3c(N)nccn32)C1 [Linsitinib] (partner 1 µM)
relative viability (NCI-H2347; first compound 0.04 µM): 0.883 | relative viability (NCI-H2347; first compound 0.1265 µM): 1.05 | relative viability (NCI-H2347; first compound 0.4 µM): 1.01 | relative viability (NCI-H2347; first compound 4 µM): 1.02 | relative viability (EPLC-272H; first compound 0.04 µM): 1.24 | relative viability (EPLC-272H; first compound 0.1265 µM): 1.12 | relative viability (EPLC-272H; first compound 0.4 µM): 1.17 | relative viability (EPLC-272H; first compound 4 µM): 1.36 | relative viability (H3255; first compound 0.04 µM): 0.934 | relative viability (H3255; first compound 0.1265 µM): 1.04 | relative viability (H3255; first compound 0.4 µM): 0.818 | relative viability (H3255; first compound 4 µM): 0.879 | relative viability (NCI-H650; first compound 0.04 µM): 0.85 | relative viability (NCI-H650; first compound 0.1265 µM): 0.729 | relative viability (NCI-H650; first compound 0.4 µM): 0.86 | relative viability (NCI-H650; first compound 4 µM): 0.584 | relative viability (201T; first compound 0.04 µM): 1.09 | relative viability (201T; first compound 0.1265 µM): 1.01 | relative viability (201T; first compound 0.4 µM): 1.01 | relative viability (201T; first compound 4 µM): 1.01 | relative viability (COR-L 105; first compound 0.04 µM): 1.01 | relative viability (COR-L 105; first compound 0.1265 µM): 1.1 | relative viability (COR-L 105; first compound 0.4 µM): 0.746 | relative viability (COR-L 105; first compound 4 µM): 0.996 | relative viability (NCI-H2087; first compound 0.04 µM): 0.939 | relative viability (NCI-H2087; first compound 0.1265 µM): 1 | relative viability (NCI-H2087; first compound 0.4 µM): 0.91 | relative viability (NCI-H2087; first compound 4 µM): 0.772 | relative viability (NCI-H2126; first compound 0.04 µM): 0.765 | relative viability (NCI-H2126; first compound 0.1265 µM): 0.762 | relative viability (NCI-H2126; first compound 0.4 µM): 0.707 | relative viability (NCI-H2126; first compound 4 µM): 0.722 | relative viability (NCI-H2405; first compound 0.04 µM): 0.896 | relative viability (NCI-H2405; first compound 0.1265 µM): 1.04 | relative viability (NCI-H2405; first compound 0.4 µM): 0.832 | relative viability (NCI-H2405; first compound 4 µM): 0.881 | relative viability (HCC-78; first compound 0.04 µM): 0.485 | relative viability (HCC-78; first compound 0.1265 µM): 0.461 | relative viability (HCC-78; first compound 0.4 µM): 0.344 | relative viability (HCC-78; first compound 4 µM): 0.461 | relative viability (LC-2-ad; first compound 0.04 µM): 0.798 | relative viability (LC-2-ad; first compound 0.1265 µM): 0.895 | relative viability (LC-2-ad; first compound 0.4 µM): 0.839 | relative viability (LC-2-ad; first compound 4 µM): 0.719 | relative viability (NCI-H1666; first compound 0.04 µM): 1.08 | relative viability (NCI-H1666; first compound 0.1265 µM): 0.908 | relative viability (NCI-H1666; first compound 0.4 µM): 0.839 | relative viability (NCI-H1666; first compound 4 µM): 0.565 | relative viability (LCLC-97TM1; first compound 0.1265 µM): 0.157 | relative viability (LCLC-97TM1; first compound 0.4 µM): 0.204 | relative viability (LCLC-97TM1; first compound 4 µM): 0.204 | relative viability (NCI-H23; first compound 0.04 µM): 0.609 | relative viability (NCI-H23; first compound 0.1265 µM): 0.496 | relative viability (NCI-H23; first compound 0.4 µM): 0.489 | relative viability (NCI-H23; first compound 4 µM): 0.494 | relative viability (NCI-H322M; first compound 0.04 µM): 1.01 | relative viability (NCI-H322M; first compound 0.1265 µM): 0.847 | relative viability (NCI-H322M; first compound 0.4 µM): 0.857 | relative viability (NCI-H322M; first compound 4 µM): 0.79 | relative viability (HCC-827; first compound 0.04 µM): 1 | relative viability (HCC-827; first compound 0.1265 µM): 0.895 | relative viability (HCC-827; first compound 0.4 µM): 0.978 | relative viability (HCC-827; first compound 4 µM): 0.954 | relative viability (NCI-H1915; first compound 0.04 µM): 1.05 | relative viability (NCI-H1915; first compound 0.1265 µM): 1.07 | relative viability (NCI-H1915; first compound 0.4 µM): 1.13 | relative viability (NCI-H1915; first compound 4 µM): 1.12 | relative viability (NCI-H520; first compound 0.04 µM): 1.1 | relative viability (NCI-H520; first compound 0.1265 µM): 0.83 | relative viability (NCI-H520; first compound 0.4 µM): 0.748 | relative viability (NCI-H520; first compound 4 µM): 0.837 | relative viability (NCI-H661; first compound 0.1265 µM): 0.556 | relative viability (NCI-H661; first compound 0.4 µM): 0.599 | relative viability (NCI-H661; first compound 4 µM): 0.506 | relative viability (PC-14; first compound 0.04 µM): 0.963 | relative viability (PC-14; first compound 0.1265 µM): 0.902 | relative viability (PC-14; first compound 0.4 µM): 0.937 | relative viability (PC-14; first compound 4 µM): 0.754 | relative viability (RERF-LC-KJ; first compound 0.04 µM): 0.922 | relative viability (RERF-LC-KJ; first compound 0.1265 µM): 0.907 | relative viability (RERF-LC-KJ; first compound 0.4 µM): 0.91 | relative viability (RERF-LC-KJ; first compound 4 µM): 0.774 | relative viability (NCI-H647; first compound 0.04 µM): 1.28 | relative viability (NCI-H647; first compound 0.1265 µM): 1.12 | relative viability (NCI-H647; first compound 0.4 µM): 0.926 | relative viability (NCI-H647; first compound 4 µM): 0.76
